US20260234144A1 (TAY THERAPEUTICS LIMITED, priority 2023, published 2026)

Test system: R223X stop codon in the mutated luciferase gene, ADXC8 luciferase reporter cell line
Assay: cells
Type: cell-based
Details: 24 h, ADXC8 cells, 24 hours; for Emax: read-out: Fold Over Control, maximum fold response relative to 200 μM G418; for EC (100% of 200 uM G418 response): read-out: pC100%, negative logarithm of the concentration giving the same response as 200 μM G418
Procedure: The read-through activity of compounds was assessed using the ADXC8 luciferase reporter cell line (generated as described in McElroy et al. PLoS Biology (2013), 11, e1001593). […] The amount of luciferase is measured by adding a lysis buffer containing luciferin substrate and detecting luminescence using the following protocol:
ADXC8 cells in assay media (DMEM+10% FBS) were seeded into 96-well tissue culture treated white plates (Greiner) to a density of 13,000 cells per well and incubated for 24 hours at 37° C. in an atmosphere of 5% CO2. […] Plates were incubated for a further 24 hours at 37° C. in an atmosphere of 5% CO2. Cells treated with 200 μM G418 (with 1% DMSO) were used as a positive control.
Cell viability and firefly luciferase activity were measured in the same assay wells. CellTiter-Fluor™ reagent was prepared as per manufacturer's instructions (Promega E7120) and 20 μl of 5× CellTiter-Fluor™ reagent was added to all wells, briefly mixed by orbital shaking (300-500 rpm for −30 seconds) and the plates incubated for 30-45 minutes at 37° C. in an atmosphere of 5% C02. Cell viability was measured by monitoring fluorescence on a CLARIOstar® plate reader (BMG Labtech). Cells containing 1% DMSO were used as a positive control and cells with 400 μM Doxorubicin were used as negative control to define 100 and 0% respectively. ONE-Glo™ luciferase assay buffer (Promega E7120) was prepared according to manufacturer's instructions and 100 μl of luciferase reagent was added to each well and the plate incubated at RT for 3 mins before measuring the luminescence on the CLARIOstar® plate reader (BMG Labtech). Cells treated with 200 μM G418 (with 1% DMSO) were used as a positive control and arbitrarily assigned a value of 100%. Cells treated with 1% DMSO were used as the negative control to define 0% response.
Concentration effect curves were analysed using non-linear regression using the CDD Vault from Collaborative Drug Discovery (Burlingame, CA). […] The bottom and top of the curves were constrained to 0 and the maximum measured response respectively. From the fitted curves, the software derived C100% values (the concentration giving the same response as 200 μM G418) for each compound. The negative logarithm of C100% is reported as pC100% (Table 1). In addition to pC100% values, the maximum fold response relative to 200 μM G418 (Fold over Control) was also captured (Table 1). A pC100% categorisation of ‘-’ in Table 1 represents examples in which a pC100% response was not reached when assayed at a concentration of 100 μM. A pC100% categorisation of ‘*’ in Table 1 represents examples in which a pC100% response was not reached when assayed at a concentration of 30 μM.

CC(=O)Nc1cnccc1CN1CCC(Nc2nc(N)c3c(C)cc(C)nc3n2)CC1 [Example 560]
Emax: 100 to 3000% | EC (100% of 200 uM G418 response): 1 to 10 µM

Cc1cc(C)c2c(NC3CCC3)nc(N[C@@H]3CCNC3)nc2n1 [Example 333]
Emax: 0 to 100% | EC (100% of 200 uM G418 response): > 31.6 µM

CN1CCC(Nc2nc(N)c3ccc(-c4cc(F)ccc4F)nc3n2)CC1 [Example 69]
Emax: 100 to 3000% | EC (100% of 200 uM G418 response): 1 to 10 µM

[2H]C([2H])([2H])Nc1nc(NC2CCN(C([2H])([2H])[2H])CC2)nc2nc(C)cc(C)c12 [Example 512, 5,7-dimethyl-N^4-(methyl-da)-N^2-(1-(methyl-da)piperidin-4-yl)pyrido[2,3-d]pyrimidine-2,4-diamine]
EC (100% of 200 uM G418 response): 0.1 to 1 µM

CN1CCC(Nc2nc(N)c3cc(-c4cncn4C)cnc3n2)CC1 [Example 643]
Emax: 0 to 100% | EC (100% of 200 uM G418 response): > 100 µM

Cc1cc(C)c2c(N)nc(NC3CCN(Cc4cc(F)cc(F)c4O)CC3)nc2n1 [Example 569]
Emax: 100 to 3000% | EC (100% of 200 uM G418 response): 1 to 10 µM

Cc1cc(C)c2c(N)nc(NC3CCN(Cc4c(F)cc(C#N)cc4F)CC3)nc2n1 [Example 551]
Emax: 100 to 3000% | EC (100% of 200 uM G418 response): 10 to 100 µM

Cc1nc2nc(NC3CCN(C)CC3)nc(N)c2c2c1CCC2 [Example 11, 6-methyl-N^3-(1-methylpiperidin-4-yl)-8,9-dihydro-7H-cyclopenta[4,5]pyrido[2,3-d]pyrimidine-1,3-diamine]
Emax: 100 to 3000% | EC (100% of 200 uM G418 response): 0.1 to 1 µM

COc1ccc(CN2CCC(Nc3nc(N)c4c(C)cc(C)nc4n3)CC2)cc1 [Example 478]
Emax: 100 to 3000% | EC (100% of 200 uM G418 response): 0.1 to 1 µM

COc1ccccc1CN1CCC(Nc2nc(N)c3c(C)cc(C)nc3n2)CC1 [Example 426, N^2-(1-(2-methoxybenzyl)piperidin-4-yl)-5,7-dimethylpyrido[2,3-d]pyrimidine-2,4-diamine]
Emax: 100 to 3000% | EC (100% of 200 uM G418 response): 1 to 10 µM

CNc1nc(N[C@@H]2CCN(C)C2)nc2nc3c(c(C)c12)CCO3 [Example 514, (R)—N^4,5-dimethyl-N^2-(1-methylpyrrolidin-3-yl)-6,7-dihydrofuro[3′,2′:5,6]pyrido[2,3-d]pyrimidine-2,4-diamine]
Emax: 100 to 3000% | EC (100% of 200 uM G418 response): 1 to 10 µM

CCNc1nc(N[C@H]2CN(C)C[C@@H]2O)nc2nc(C)cc(C)c12 [Example 391]
Emax: 100 to 3000% | EC (100% of 200 uM G418 response): 0.1 to 1 µM

Cc1cc(C)c2c(NCCN(C)C)nc(NC3CCN(C)CC3)nc2n1 [Example 270]
Emax: 100 to 3000% | EC (100% of 200 uM G418 response): 1 to 10 µM

CNc1nc(NC2CN(C)CC23CC3)nc2nc(C)cc(C)c12 (centres unmarked) [Example 408]
EC (100% of 200 uM G418 response): 1 to 10 µM

Cc1cc(C)c2c(N)nc(NCC3CCN(C4CC4)C3)nc2n1 (centres unmarked) [Example 157]
Emax: 100 to 3000% | EC (100% of 200 uM G418 response): 1 to 10 µM

CN1CCC(Nc2nc(N)c3ccc(-c4ccc(F)c(F)c4)nc3n2)CC1 [Example 108]
EC (100% of 200 uM G418 response): 1 to 10 µM

CN1CCC(Nc2nc(N)c3ccc(-c4cccc(S(N)(=O)=O)c4)nc3n2)CC1 [Example 55]
Emax: 100 to 3000% | EC (100% of 200 uM G418 response): 10 to 100 µM

Cc1cc(C)c2c(N)nc(NCC3CCN(C(=O)OC(C)(C)C)CC3)nc2n1 [Example 133]
Emax: 0 to 100% | EC (100% of 200 uM G418 response): > 100 µM

Cc1cc(C)c2c(N)nc(NC3CCN(Cc4c(Cl)cccc4Cl)CC3)nc2n1 [Example 470]
Emax: 100 to 3000% | EC (100% of 200 uM G418 response): 1 to 10 µM

Cc1cc(C)c2c(N)nc(N[C@H]3CNC[C@@H]3O)nc2n1 [Example 293]
EC (100% of 200 uM G418 response): 0.1 to 1 µM

CN1CCC(Nc2nc(N)c3ccc(-c4ccccc4CO)nc3n2)CC1 [Example 89]
EC (100% of 200 uM G418 response): 10 to 100 µM

Cc1nc2nc(NCCCN3CCOCC3)nc(N)c2c2c1CCC2 [Example 46, 6-methyl-N^3-(3-morpholinopropyl)-8,9-dihydro-7H-cyclopenta[4,5]pyrido[2,3-d]pyrimidine-1,3-diamine]
EC (100% of 200 uM G418 response): 0.1 to 1 µM

CNc1nc(N[C@H]2CNC[C@@H]2F)nc2nc3c(c(C)c12)CCC3 [Example 342]
Emax: 100 to 3000% | EC (100% of 200 uM G418 response): 0.1 to 1 µM

CNc1nc(N[C@H]2CN(C)C[C@@H]2O)nc2nc(C)c(Br)c(C)c12 [Example 615]
EC (100% of 200 uM G418 response): 1 to 10 µM

CNc1cc(N[C@H]2CNC[C@H]2O)nc2nc3c(c(C)c12)CCC3 [Example 618]
EC (100% of 200 uM G418 response): 1 to 10 µM

CCN1C[C@H](Nc2nc(NC)c3c(C)cc(C)nc3n2)[C@@H](O)C1 [Example 626]
Emax: 100 to 3000% | EC (100% of 200 uM G418 response): 1 to 10 µM

CNc1nc(NCC2CN3CCC2C3)nc2nc(C)cc(C)c12 (centres unmarked) [Example 404]
Emax: 0 to 100% | EC (100% of 200 uM G418 response): > 31.6 µM

Cc1cc(C)c2c(N)nc(NCCN3CCC3)nc2n1 [Example 184]
Emax: 100 to 3000% | EC (100% of 200 uM G418 response): 10 to 100 µM

Cc1cc(C)c2c(N)nc(NC3CC4(C3)CN(C(=O)OC(C)(C)C)C4)nc2n1 [Example 134]
Emax: 0 to 100% | EC (100% of 200 uM G418 response): > 100 µM

Cc1cc(C)c2c(NCCO)nc(NC3CCN(C)CC3)nc2n1 [Example 273]
EC (100% of 200 uM G418 response): 1 to 10 µM

Cc1ccc(O)c(CN2CCC(Nc3nc(N)c4c(C)cc(C)nc4n3)CC2)c1 [Example 548]
Emax: 100 to 3000% | EC (100% of 200 uM G418 response): 0.1 to 1 µM

CN1CCC(Nc2nc(N)c3ccc(CO)nc3n2)CC1 [Example 299]
Emax: 0 to 100% | EC (100% of 200 uM G418 response): > 100 µM

Cc1cc(C)c2c(N)nc(NC3CCN(Cc4cccnc4)CC3)nc2n1 [Example 504]
Emax: 100 to 3000% | EC (100% of 200 uM G418 response): 1 to 10 µM

Cc1c2c(nc3nc(N[C@H]4CNC[C@@H]4O)nc(N)c13)CCC2 [Example 582]
Emax: 100 to 3000% | EC (100% of 200 uM G418 response): 0.01 to 0.1 µM

CNc1nc(N[C@H]2CN(C)C[C@H]2F)nc2nc(C)c3c(c12)CCC3 [Example 366]
Emax: 100 to 3000% | EC (100% of 200 uM G418 response): 0.1 to 1 µM

CNCCNc1nc(NC2CCN(C)CC2)nc2nc(C)cc(C)c12 [Example 330]
Emax: 0 to 100% | EC (100% of 200 uM G418 response): > 31.6 µM

CNc1cc(N[C@@H]2CCN(C)C2)nc2nc3c(c(C)c12)CCC3 [Example 258, (R)—N^4,5-dimethyl-N^2-(1-methylpyrrolidin-3-yl)-7,8-dihydro-6H-cyclopenta[b][1,8]naphthyridine-2,4-diamine]
Emax: 100 to 3000% | EC (100% of 200 uM G418 response): 0.1 to 1 µM

Cc1cc(C)c2c(N)nc(NC3CCN(Cc4ccccc4)CC3)nc2n1 [Example 158]
Emax: 100 to 3000% | EC (100% of 200 uM G418 response): 0.1 to 1 µM

Cc1cc(C)c2c(N)cc(NC3CCN(C)CC3)nc2n1 [Example 291]
Emax: 100 to 3000% | EC (100% of 200 uM G418 response): 1 to 10 µM

Cc1cc(C)c2c(N)nc(NC3(CN(C)C)CC3)nc2n1 [Example 219, N^2-(1-((dimethylamino)methyl)cyclopropyl)-5,7-dimethylpyrido[2,3-d]pyrimidine-2,4-diamine]
Emax: 0 to 100% | EC (100% of 200 uM G418 response): > 31.6 µM

CC#Cc1ccc2c(N)nc(NC3CCN(C)CC3)nc2n1 [Example 283]
EC (100% of 200 uM G418 response): 1 to 10 µM

CNc1nc(N[C@@H]2CCCN(C)CC2)nc2nc(C)cc(C)c12 [Example 401]
Emax: 100 to 3000% | EC (100% of 200 uM G418 response): 1 to 10 µM

CNc1nc(N[C@H]2CN(C)C[C@@H]2OC(=O)OC(C)(C)C)nc2nc3c(c(C)c12)CCC3 [Example 685, tert-butyl ((3S,4S)-1-methyl-4-((5-methyl-4-(methylamino)-7,8-dihydro-6H-cyclopenta[5,6]pyrido[2,3-d]pyrimidin-2-yl)amino)pyrrolidin-3-yl) carbonate]
Emax: 100 to 3000% | EC (100% of 200 uM G418 response): 0.1 to 1 µM

COCCN1CCC(Nc2nc(N)c3c(C)cc(C)nc3n2)CC1 [Example 172]
Emax: 100 to 3000% | EC (100% of 200 uM G418 response): 10 to 100 µM

Cc1c2c(nc3nc(NC4CCN(Cc5ccc(S(N)(=O)=O)cc5)CC4)nc(N)c13)CCC2 [Example 667]
Emax: 100 to 3000% | EC (100% of 200 uM G418 response): 1 to 10 µM

CCN1CCC(Nc2nc(N)c3c(C)cc(C)nc3n2)CC1 [Example 213]
Emax: 100 to 3000% | EC (100% of 200 uM G418 response): 1 to 10 µM

Cc1cc(C)c2c(N)nc(NC3CCN(Cc4ccc(C#N)cc4O)CC3)nc2n1 [Example 567]
Emax: 100 to 3000% | EC (100% of 200 uM G418 response): 0.1 to 1 µM

CNc1nc(N[C@@H]2CCN(C)C2)nc2nc(OC)cc(C)c12 [Example 616]
Emax: 100 to 3000% | EC (100% of 200 uM G418 response): 1 to 10 µM
